This note sets out measurements from patent US8071300B2, “Drug-phosphorylating enzyme” (Daiichi Sankyo Company, Limited, priority 2006, dated 2011).

The target of assay [1] is T1, human FN3K (Homo sapiens, UniProt Q9H479).
T1 construct: expressed in transfected cells; host or cells: HEK293, transient, hFN3K/pcDNA3.2-DEST; cytoplasmic fraction (lysate supernatant) used
T1 sequence (Q9H479 1-309): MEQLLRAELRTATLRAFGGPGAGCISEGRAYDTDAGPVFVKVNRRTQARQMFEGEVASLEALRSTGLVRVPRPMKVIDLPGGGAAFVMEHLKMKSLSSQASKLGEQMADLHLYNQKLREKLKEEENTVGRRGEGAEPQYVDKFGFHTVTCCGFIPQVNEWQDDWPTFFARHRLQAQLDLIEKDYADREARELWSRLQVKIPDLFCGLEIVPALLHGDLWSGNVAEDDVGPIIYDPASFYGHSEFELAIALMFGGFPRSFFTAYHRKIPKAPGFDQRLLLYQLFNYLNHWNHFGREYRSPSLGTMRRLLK
Kind of assay: Phosphorylation of compound 1 and analogs using human FN3K expression cytoplasmic fraction (Example 14). The following applies: 100 μM substrate, 0.3 mg/mL human FN3K expression cytoplasmic fraction, 5 mM ATP, 37° C., 3 hours. In kind it is biochemical. The method, then:
(§1) HEK293 cells were inoculated to three 75-cm^2 culture flasks, and they were then cultured until they became 80% confluent. Using a lipofectamine plus reagent (Invitrogen), gene introduction was carried out without plasmid DNA, with 4 μg of hFN3KRP/pcDNA3.1(+)neo, and with 4 μg of hFN3K/pcDNA3.2-DEST, for each of the three flasks. Thereafter, the cells were cultured for approximately 27 hours. Thereafter, the cells were washed with PBS, and 2.5 mL of a cell lysate (100 mM HEPES (pH 7.4), 80% (v/v) CelLytic-M (Sigma), 1 mM dithiothreitol, a single protease inhibitor cocktail for 50 mL (Complete EDTA-free, Roche)) was then added to the cells. Thereafter, the cells were intensively shaken, until all of them were removed. The thus removed cells and the supernatant were recovered, and they were then ultracentrifuged at 20,000×g at 4° C. for 15 minutes. Thereafter, the supernatant was recovered, and aliquots each of 200 μL were frozen in liquid nitrogen. They were preserved at −80° C. until used. […]
(§2) The efficiency of phosphorylating each compound was calculated using the peak areas of phosphoric ester and unreacted substrate, as shown in the following formula. […]
After completion of the reaction, 200 μL of methanol was added to the reaction solution, and the mixture was then stirred. […] The efficiency of phosphorylating each analog was calculated using the formula as shown in Example 13.

The subject of the next assay is rat erythrocytes. Kind of assay: Phosphorylation of compound 1 and analogs using rat erythrocytes (Example 15). It is filed as cell-based, Wistar-Imamichi rats. The note with it: 100 μg/mL substrate, 37° C., 3 hours. The procedure: The efficiency of phosphorylating each compound was calculated using the peak areas of phosphoric ester and unreacted substrate, as shown in the following formula. Phosphorylation efficiency (%)=peak area of phosphoric ester/(peak area of phosphoric ester+peak area of unreacted substrate)×100
Erythrocytes were prepared from Wistar-Imamichi rats (purchased from Institute for Animal Reproduction) in the same manner as in Example 1.
Reaction solution: Rat erythrocytes
Reaction substrate: 100 μg/mL
Reaction condition: 37° C., 3 hours
After completion of the reaction, 1 mL of methanol was added to the reaction solution, and the mixture was then stirred. The mixed solution was centrifuged (16,000×g, 5 minutes, 4° C.). The supernatant was centrifuged again (16,000×g, 10 minutes, 4° C.), and 20 μL of a newly obtained supernatant was then subjected to HPLC, so that analysis was carried out under the conditions described in Example 13. The efficiency of phosphorylating each analog was calculated using the formula as shown in Example 13.

Assay [2] concerns the target T2, human FN3KRP (Homo sapiens, UniProt Q9HA64).
T2 sequence (Q9HA64 1-309): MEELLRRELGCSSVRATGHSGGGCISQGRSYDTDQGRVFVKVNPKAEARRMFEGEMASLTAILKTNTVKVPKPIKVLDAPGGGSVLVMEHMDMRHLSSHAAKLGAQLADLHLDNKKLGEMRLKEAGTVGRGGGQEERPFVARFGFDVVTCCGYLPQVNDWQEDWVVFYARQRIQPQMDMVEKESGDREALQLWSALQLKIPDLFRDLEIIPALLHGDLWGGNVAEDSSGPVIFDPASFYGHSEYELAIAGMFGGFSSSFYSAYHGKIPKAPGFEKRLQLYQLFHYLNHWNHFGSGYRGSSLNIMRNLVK
Kind of assay: Phosphorylation of compound 1 and analogs using human FN3KRP expression cytoplasmic fraction (Example 13). On the set-up: expressed in transfected cells; host or cells: HEK293, transient, hFN3KRP/pcDNA3.1(+)neo; cytoplasmic fraction (lysate supernatant) used. It is filed as biochemical. The note with it: 100 μM substrate, 0.328 mg/mL human FN3KRP expression cytoplasmic fraction, 5 mM ATP, 37° C., 3 hours. The procedure: as §1, with “used. In addition, a portion of the supernatant was subjected to measurement of protein concentration.” for “used.”
as §2

Assay [3] concerns the target T1, human FN3K. Kind of assay: DMF inhibition of compound 1 phosphorylating activity, hydrophobic interaction column active fraction (Example 6). In kind it is biochemical. The following applies: active fraction of the hydrophobic interaction column (second purification stage, Example 4). The procedure:
(§3) When 1-deoxy-1-morpholinofructose (DMF; Sigma) was added to the reaction solution, it was added thereto to a final concentration of 1 mM. […] Thereafter, 150 μL of methanol was added to the reaction solution, and the mixture was then filtrated through a filter with a pore diameter of 0.45 μm, so as to terminate the reaction and remove the protein. 10 μL of the filtrate was subjected to a reverse phase chromatography column (TSK-gel ODS-100S; 4.6 mm (diameter)×150 mm (length); Tosoh Corp). Isocratic elution was carried out using 40% acetonitrile comprising 0.1% trifluoroacetic acid at a flow rate of 1 mL/min at a column temperature of 40° C. […] The amount of phosphoric ester of compound 1 generated was measured based on a peak area.

Assay [4] concerns the target T2, human FN3KRP. The assay is described as follows: Compound 1 phosphorylating activity of human erythrocyte fractions in presence and absence of 1 mM DMF (FN3KRP purification, Example 6). In kind it is biochemical. The method, then:
as §3
(§4) For purification, enzyme activity was always measured in the presence and absence of 1 mM DMF, so that the purification was carried out using activity that is not inhibited by DMF as an indicator.
(§5) The ammonium sulfate precipitate obtained in Example 4 was fractionated by each of an anion exchange column (HiPrep Q 16/10 XL, GE Healthcare Biosciences), a dye-binding affinity column (HiTrap Blue HP 1 mL), a cation exchange column (Mono S PC 1.6/5), and a gel filtration column (Superdex 75 PC 3.2/30).

In assay [5] the test system is human FN3KRP. The description is as above. In kind it is biochemical. The procedure: as §3, §4, §5
Assay [6] concerns the target T1, human FN3K. Kind of assay: Ability of human FN3K cytoplasmic fraction to phosphorylate FTY720 and sphingosine (Example 12). In kind it is biochemical. The following applies: 10 μM substrate, 5 mM ATP, approximately 91 μg cytoplasmic fraction, 37° C., 3 hours. The procedure: (§6) Eighteen 1.5-mL polypropylene tubes were prepared. Components were added to each tube to the following final concentrations, with the total amount set at 250 μL, followed by leaving the obtained solution at rest on ice (100 mM HEPES (pH 7.4), 5 mM magnesium chloride, 5 mM ATP, 1 mM dithiothreitol, 0.5% CHAPS, 10 μM FTY720 or sphingosine, each cytoplasmic fraction obtained in Example 10 in an amount of approximately 91 μg). The obtained mixture was incubated in a hot-water bath at 37° C. for 3 hours, and was then transferred onto ice. 0.5 mL methanol was added to each tube, and mixed with the reaction product. Thereafter, the mixture was preserved at −20° C. until LC/MS/MS measurement was carried out.
(§7) The amount of FTY720 phosphoric ester or SIP generated was analyzed using the following LC/MS/MS system.
(§8) LC system: • HPLC apparatus name: Agilent 1100 series (Agilent Technologies) • Autosampler name: HTC PAL (CTC Analytics)
(§9) MS/MS system: • Apparatus name: API4000 (Applied Biosystems/MDS Sciex)

Assay [7] addresses T2, human FN3KRP. The assay is described as follows: Ability of human FN3KRP cytoplasmic fraction to phosphorylate FTY720 and sphingosine (Example 12). It is filed as biochemical. On the set-up: expressed in transfected cells; host or cells: HEK293, transient, hFN3KRP/pcDNA3.1(+)neo; cytoplasmic fraction (lysate supernatant) used. The following applies: 10 μM substrate, 5 mM ATP, approximately 91 μg cytoplasmic fraction, 37° C., 3 hours. The method, then: as §6, §7, §8, §9

Molecules are shown by their SMILES.

For `NC(CO)(CO)CCCc1ccc(Sc2cccc(OCc3ccccc3)c2)cc1Cl` [ROX-2127, 2-amino-2-[4-(3-benzyloxyphenylthio)-2-chlorophenyl]propyl-1,3-propanediol], the Phosphorylation efficiency was 0.0% at human FN3K [1], 31.7% in the assay with rat erythrocytes and 37.5% at human FN3KRP [2].

For the molecule `O=C(CN1CCOCC1)[C@@H](O)[C@H](O)[C@H](O)CO` [DMF, 1-deoxy-1-morpholinofructose], on human FN3K [3], the IC50 – broadly, the concentration that inhibits the measured activity by half – was approximately 1000 nM. Further, the remaining activity (usually the signal under treatment as a percentage of the control signal) at 1000 µM stood at 98% at human FN3KRP [4] (1 mM DMF; 2) anion exchange column), 110% on human FN3KRP [4] (1 mM DMF; 3) dye-binding affinity column) and 98% at human FN3KRP [4] (1 mM DMF; 4) cation exchange column). For the same molecule, the “Inhibition of enzyme activity by DMF” value on human FN3KRP [4] (enzyme activity after the second purification step) is “not inhibited”. Besides, the Remaining activity with human FN3KRP [5] (1 mM DMF; 1) ammonium sulfate precipitation) came out at 89%; in the assay with human FN3KRP [5] (1 mM DMF, soluble fraction), 81%. In addition, the “Inhibition of compound 1 phosphorylating activity by DMF” value in the assay on human FN3KRP [5] (soluble fraction and re-solubilized ammonium sulfate precipitate) was “hardly observed”.

For the molecule `CCCCCCCCc1ccc(CCC(N)(CO)CO)cc1.Cl` [FTY720, 2-Amino-2-[2-(4-octylphenyl)ethyl]propane-1,3-diol hydrochloride], the “Phosphorylation of substrate (LC/MS/MS)” value on human FN3K [6] and at human FN3KRP [7] was “slightly phosphorylate” in each case.

For the molecule `CCCCCCCCCCCCC/C=C/[C@@H](O)[C@@H](N)CO` [sphingosine], the “Phosphorylation of substrate (LC/MS/MS)” value on human FN3K [6] and on human FN3KRP [7] was “do not have ability to phosphorylate” each time.
